Measured values taken from US20080274149A1, “Encapsulation and Controlled Release of Biologically Active Ingredients with Enzymatically Degradable Microparticulate, Hyperbranched Polymers” (priority 2005, published 2008).

Assay: Stability in formulation: creatine in oil-in-water emulsion stored at 45° C.
Type: physicochemical
Experimental: 1.5% of the microcapsules from Example 4 were stirred into an oil-in-water emulsion and stored at T=45° C.

creatine [%] (0 weeks): 100%
creatine [%] (stored at T=45° C., 5 weeks): 40%
SMILES: CN(CC(=O)O)C(=N)N [Free creatine, creatine]
